The source of these data is patent publication US9273028B2, “Heterocyclic tyrosine kinase inhibitors” (Biogen MA Inc., priority 2010, dated 2016).

The IC50 is the concentration that gives 50% inhibition. Read a high IC50 as lower potency.

In the assay the target is T1, BTK (Homo sapiens, UniProt Q06187).
T1 construct: purchased Upstate 14-552
Nature of the assay: In vitro BTK kinase assay (BTK-POLYGAT-LS). The following applies: IC50 (10 uM ATP). It counts as biochemical. On the procedure: In vitro BTK Kinase Assay
The purpose of the BTK in vitro assay is to determine compound potency against BTK through the measurement of IC50. […] For a typical assay, a 24 μL aliquot of a ATP/peptide master mix (final concentration; ATP 10 μM, polyGAT 100 nM) in kinase buffer (10 mM Tris-HCl pH 7.5, 10 mM MgCl2, 200 μM Na3PO4, 5 mM DTT, 0.01% Triton X-100, and 0.2 mg/ml casein) is added to each well. […] The assay is incubated for 30 minutes before being stopped with 28 μL of a 50 mM EDTA solution. […] The plate is covered and incubated for 45 minutes at room temperature.

T1 sequence (Q06187 whole entry): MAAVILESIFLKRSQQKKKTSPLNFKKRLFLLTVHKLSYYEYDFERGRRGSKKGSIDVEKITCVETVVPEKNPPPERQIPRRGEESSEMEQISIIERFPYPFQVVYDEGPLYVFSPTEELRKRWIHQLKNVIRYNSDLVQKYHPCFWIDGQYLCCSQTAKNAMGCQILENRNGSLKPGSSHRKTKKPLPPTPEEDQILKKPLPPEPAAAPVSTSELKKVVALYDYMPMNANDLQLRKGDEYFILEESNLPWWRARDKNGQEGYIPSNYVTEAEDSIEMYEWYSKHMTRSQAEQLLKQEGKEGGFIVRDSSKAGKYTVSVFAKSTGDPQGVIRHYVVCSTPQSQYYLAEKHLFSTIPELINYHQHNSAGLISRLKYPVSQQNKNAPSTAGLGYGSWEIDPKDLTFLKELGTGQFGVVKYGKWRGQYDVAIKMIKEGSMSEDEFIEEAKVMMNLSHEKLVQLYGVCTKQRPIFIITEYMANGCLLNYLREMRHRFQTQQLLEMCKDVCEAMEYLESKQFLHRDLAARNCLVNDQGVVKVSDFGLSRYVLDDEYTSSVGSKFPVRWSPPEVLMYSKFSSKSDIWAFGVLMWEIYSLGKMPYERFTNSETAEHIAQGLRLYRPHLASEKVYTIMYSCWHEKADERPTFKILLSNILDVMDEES

Compound `CC1C(Nc2ncnc3[nH]ccc23)CCCN1C(=O)[C@@H](C)Nc1cc(Cl)cc(Cl)c1` (stereo partly shown) [Compound 81] gave an IC50 below 0.1 µM.
`NC(=O)c1c(N)ncnc1NC1CCCN(C(=O)CNc2cc(Cl)cc(Cl)c2)C1` (stereo not shown) [Compound 82] had an IC50 above 10 µM.
Take `CNc1cc(NC2CCCN(C(=O)CNc3cc(Cl)cc(Cl)c3)C2)ncn1` (stereo not shown) [Compound 83]: the IC50 is 0.1 to 0.999 µM.
As to `CC(C)N(c1ncnc2[nH]ccc12)C1CCCN(C(=O)CNc2cc(Cl)cc(Cl)c2)C1` (stereo not shown) [Compound 84], the IC50 is 0.1 to 0.999 µM.
Regarding `CC(=O)Nc1cc(NC2CCCN(C(=O)CNc3cc(Cl)cc(Cl)c3)C2)ncn1` (stereo not shown) [Compound 85], the IC50 fell in the range of 1 to 10 µM.
Then `O=C(CNc1cc(Cl)cc(Cl)c1)N1CCCC(N(CCN2CCOCC2)c2ncnc3[nH]ccc23)C1` (stereo not shown) [Compound 86], with 0.1 to 0.999 µM; and `CC1CC(N(C)c2ncnc3[nH]ncc23)CN(C(=O)CNc2cc(Cl)cc(Cl)c2)C1` (stereo not shown) [Compound 87], with below 0.1 µM.
In the case of `O=C(CNc1cc(Cl)cc(Cl)c1)N1CCCC(N(CCN2CCCCC2)c2ncnc3[nH]ccc23)C1` (stereo not shown) [Compound 88], the 50% inhibitory concentration (IC50) is 1 to 10 µM.
Turning to `O=C(CNc1cc(Cl)cc(Cl)c1)N1CCCC(N(CCc2ccccc2)c2ncnc3[nH]ccc23)C1` (stereo not shown) [Compound 97], the IC50 is above 10 µM.
In turn, `C[C@@H]1C[C@H](N(C)c2ncnc3[nH]ccc23)CN(C(=O)CNc2cc(Cl)cc(Cl)c2)C1` [Compound 98] came in with an IC50 below 0.1 µM.
For the compound `CCC[C@@H](Nc1cc(Cl)cc(Cl)c1)C(=O)N1CCC2CCN(c3ncnc4[nH]ccc34)C2C1` (stereo partly shown) [Compound 101], the IC50 is below 0.1 µM.
Under `CCC[C@@H](Nc1cccc(Cl)c1)C(=O)N1CCC2CCN(c3ncnc4[nH]ccc34)C2C1` (stereo partly shown) [Compound 102] stands below 0.1 µM.
Consider `C[C@@H]1C[C@H](Nc2ncnc3[nH]ncc23)CN(C(=O)CNc2cc(Cl)cc(Cl)c2)C1` [Compound 103], for which the concentration for half-maximal inhibition (IC50) was below 0.1 µM.
Then `CCCN(c1ncnc2[nH]ccc12)C1CCCN(C(=O)CNc2cc(Cl)cc(Cl)c2)C1` (stereo not shown) [Compound 106], with below 0.1 µM.
In turn, `CCN(c1ncnc2[nH]ccc12)C1CCCN(C(=O)CNc2cc(Cl)cc(Cl)c2)C1` (stereo not shown) [Compound 108] yielded an IC50 of 0.1 to 0.999 µM.
Then `CC(=O)Nc1cc(N[C@H]2CCCN(C(=O)CNc3cc(Cl)cc(Cl)c3)C2)ncn1` [Compound 109], with above 10 µM.
Under `Nc1ncnc(N[C@H]2CCCN(C(=O)CNc3cc(Cl)cc(Cl)c3)C2)c1F` [Compound 110] stands 0.1 to 0.999 µM; under `O=C(CNc1cc(Cl)cc(Cl)c1)N1CCC2CCN(c3ncnc4[nH]cnc34)C2C1` (stereo not shown) [Compound 111], below 0.1 µM.
Under `Nc1ncnc(N2CCC3CCN(C(=O)CNc4cc(Cl)cc(Cl)c4)CC32)c1F` (stereo not shown) [Compound 112] stands below 0.1 µM; under `O=C(CNc1cc(Cl)cc(Cl)c1)N1CCC[C@H](Nc2ncnc3scnc23)C1` [Compound 115], above 10 µM.
Compound `CN(c1ncnc(N)c1C#N)[C@H]1CCCN(C(=O)CNc2cc(Cl)cc(Cl)c2)C1` [Compound 116] had an IC50 above 10 µM.
For the compound `CC1CCCC(NCC(=O)N2CCC[C@H](Nc3ncnc4[nH]ccc34)C2)C1` (stereo partly shown) [Compound 117], the IC50 is above 10 µM.
Under `CCCN(c1ncnc2[nH]ccc12)[C@H]1CCCN(C(=O)CNc2cc(Cl)cc(Cl)c2)C1` [Compound 118] stands above 10 µM; under `O=C(CNc1cc(Cl)cc(Cl)c1)N1CCC[C@H](N(CCc2ccccc2)c2ncnc3[nH]ccc23)C1` [Compound 119], above 10 µM.
Under `O=CNc1cnc(Br)cc1N(C=O)[C@H]1CCCN(C(=O)CNc2cc(Cl)cc(Cl)c2)C1` [Compound 120] stands above 10 µM; under `O=CNc1cnc(Br)cc1N[C@H]1CCCN(C(=O)CN(C=O)c2cc(Cl)cc(Cl)c2)C1` [Compound 121], above 10 µM.
Under `O=C(CNc1cc(Cl)cc(Cl)c1)N1C[C@@H](Nc2ncnc3[nH]ccc23)C[C@@H](C(F)(F)F)C1` [Compound 122] stands 0.1 to 0.999 µM.
Compound `CN(c1ncnc(N)c1C(N)=O)[C@H]1CCCN(C(=O)CNc2cc(Cl)cc(Cl)c2)C1` [Compound 125] returned an IC50 above 10 µM.
The compound `CCN(c1ncnc2[nH]ccc12)[C@H]1CCCN(C(=O)CNc2cc(Cl)cc(Cl)c2)C1` [Compound 126] had an IC50 above 10 µM.
Then `CN(c1ncnc2[nH]ccc12)[C@@H]1CCN(C(=O)CNc2cc(Cl)cc(Cl)c2)C1` [Compound 127], with 1 to 10 µM.
As to `CC(=O)Nc1cc(N(C)[C@H]2CCCN(C(=O)CNc3cc(Cl)cc(Cl)c3)C2)ncn1` [Compound 128], the half-inhibitory concentration (IC50) was above 10 µM.
In turn, `CN(c1ncnc2c1CCC(=O)N2)[C@H]1CCCN(C(=O)CNc2cc(Cl)cc(Cl)c2)C1` [Compound 129] came in with an IC50 above 10 µM.
As to `CN(c1ncnc2[nH]ncc12)[C@H]1CCN(C(=O)CNc2cc(Cl)cc(Cl)c2)C1` [Compound 130], the IC50 was above 10 µM.
For `CN(c1ncnc2[nH]ncc12)[C@@H]1CCN(C(=O)CNc2cc(Cl)cc(Cl)c2)C1` [Compound 131], the IC50 is 1 to 10 µM.
As for `CN(c1ncnc2[nH]ccc12)[C@H]1CCN(C(=O)CNc2cc(Cl)cc(Cl)c2)C1` [Compound 132], the IC50 is above 10 µM.
Under `Nc1cc(N[C@H]2CCCN(C(=O)CNc3cc(Cl)cc(Cl)c3)C2)ncn1` [Compound 133] stands 1 to 10 µM; under `Nc1ncnc(N[C@H]2CCCN(C(=O)CNc3cc(Cl)cc(Cl)c3)C2)c1Cl` [Compound 134], above 10 µM.
Under `O=C(CNc1cc(Cl)cc(Cl)c1)N1CCC[C@H](Nc2cc(Br)ncc2[N+](=O)[O-])C1` [Compound 136] stands above 10 µM.
As for `O=C(CNc1cc(Cl)cc(Cl)c1)N1CCC(c2ccccc2)C(Nc2ncnc3[nH]ccc23)C1` (stereo not shown) [Compound 137], the half-maximal inhibitory concentration (IC50) is above 10 µM.
Then `O=C(CNc1ccccc1S(=O)(=O)N1CCCCC1)N1CCC[C@H](Nc2ncnc3[nH]ccc23)C1` [Compound 138], with above 10 µM.
As for `CC1CCC(NCC(=O)N2CCC[C@H](Nc3ncnc4[nH]ccc34)C2)CC1` (stereo partly shown) [Compound 139], the IC50 is above 10 µM.
Under `CC1CCCCC1NCC(=O)N1CCC[C@H](Nc2ncnc3[nH]ccc23)C1` (stereo partly shown) [Compound 140] stands above 10 µM.
Take `CN(c1ncnc2[nH]ncc12)C1CC2CC1N(C(=O)CNc1cc(Cl)cc(Cl)c1)C2` (stereo not shown) [Compound 141]: the IC50 fell in the range of 0.1 to 0.999 µM.
Compound `CN(c1ncnc2[nH]ccc12)[C@H]1CCCN(C(=O)CNc2cc(Cl)cc(C(F)(F)F)c2)C1` [Compound 142] showed a 50% inhibitory concentration (IC50) of 0.1 to 0.999 µM.
Then `CN(c1cc(N)ncn1)[C@H]1CCCN(C(=O)CNc2cc(Cl)cc(Cl)c2)C1` [Compound 144], with above 10 µM; and `CN(c1ncnc2[nH]ncc12)[C@H]1CCCN(C(=O)CNc2cc(Cl)cc(C(F)(F)F)c2)C1` [Compound 145], with 1 to 10 µM.
Under `CN(c1ncnc2[nH]ncc12)[C@H]1CCCN(C(=O)CNc2cc(F)cc(Cl)c2)C1` [Compound 146] stands 1 to 10 µM; under `O=C(CNc1cc(Cl)cc(Cl)c1)N1CC[C@H](Nc2ncnc3[nH]ncc23)C1` [Compound 147], above 10 µM.
The compound `O=C(CNC1CCCC1)N1CCC[C@H](Nc2ncnc3[nH]ccc23)C1` [Compound 149] displayed an IC50 above 10 µM.
`CN(c1ncnc2[nH]ncc12)[C@H]1CCCN(C(=O)CNc2cc(C(F)(F)F)cc(C(F)(F)F)c2)C1` [Compound 150] displayed an IC50 above 10 µM.
Under `CN(c1ncnc2[nH]cnc12)[C@H]1CCCN(C(=O)CNc2cc(Cl)cc(Cl)c2)C1` [Compound 151] stands 0.1 to 0.999 µM.
Then `O=C(CNc1cc(Cl)cc(Cl)c1)N1CC[C@H](Nc2ncnc3[nH]ccc23)C1` [Compound 152], with above 10 µM; and `O=C(CNc1cc(Cl)cc(Cl)c1)N1CC[C@@H](Nc2ncnc3[nH]ncc23)C1` [Compound 153], with above 10 µM.
Then `O=C1CCc2c(ncnc2N[C@H]2CCCN(C(=O)CNc3cc(Cl)cc(Cl)c3)C2)N1` [Compound 154], with above 10 µM.
`O=C(CNc1cc(Cl)cc(Cl)c1)N1CC[C@@H](Nc2ncnc3[nH]ccc23)C1` [Compound 155] returned an IC50 above 10 µM.
For `O=C1CCc2c(ncnc2N2CCC3CCN(C(=O)CNc4cc(Cl)cc(Cl)c4)CC32)N1` (stereo not shown) [Compound 156], the IC50 lay in the range of 1 to 10 µM.
As to `Nc1nc(N[C@H]2CCCN(C(=O)CNc3cc(Cl)cc(Cl)c3)C2)c2cc[nH]c2n1` [Compound 157], the IC50 is above 10 µM.
In turn, `CCn1cnc2cnc(N[C@H]3CCCN(C(=O)CNc4cc(Cl)cc(Cl)c4)C3)cc21` [Compound 158] returned an IC50 above 10 µM.
Take `Nc1cc(N2CCC3CCN(C(=O)CNc4cc(Cl)cc(Cl)c4)CC32)ncn1` (stereo not shown) [Compound 159]: the IC50 was below 0.1 µM.
Then `N#Cc1c(N)ncnc1N[C@H]1CCCN(C(=O)CNc2cc(Cl)cc(Cl)c2)C1` [Compound 161], with above 10 µM.
In turn, `O=C(CNC1CCCCC1)N1CCC[C@H](Nc2ncnc3[nH]ccc23)C1` [Compound 162] had an IC50 above 10 µM.
Then `CN(c1ncnc2[nH]ccc12)C1CC2CC1N(C(=O)CNc1cc(Cl)cc(Cl)c1)C2` (stereo not shown) [Compound 163], with 1 to 10 µM.
`Nc1nccc(N[C@H]2CCCN(C(=O)CNc3cc(Cl)cc(Cl)c3)C2)n1` [Compound 164] registered an IC50 above 10 µM.
In turn, `CN(c1ncnc2[nH]ccc12)[C@@H]1CCCN(C(=O)CNc2cc(F)cc(Cl)c2)C1` [Compound 165] showed an IC50 of 0.1 to 0.999 µM.
For `CN(c1ncnc2[nH]ccc12)[C@@H]1CCCN(C(=O)CNc2cc(C(F)(F)F)cc(C(F)(F)F)c2)C1` [Compound 166], the IC50 is above 10 µM.
Then `COc1c(N)ncnc1N[C@H]1CCCN(C(=O)CNc2cc(Cl)cc(Cl)c2)C1` [Compound 168], with above 10 µM; and `O=C(CNc1cc(Cl)cc(Cl)c1)N1CCC[C@H](Nc2ccnc3[nH]ccc23)C1` [Compound 169], with below 0.1 µM.
